According to patent US20250177458A1, “USES OF BIFIDOBACTERIUM LONGUM MICROORGANISMS HAVING THE CAPACITY TO DEGRADE BOTH HMO AND PLANT-DERIVED GLYCANS” (SOCIETE DES PRODUITS NESTLE S.A., priority 2022, published 2025):

Tested on: transitional B. longum isolate NCC5004
Assay: in vitro tube fermentation of fecal sample supplemented with isolate NCC5004, isolate-specific qPCR
Assay type: cell-based, Bifidobacterium longum
Conditions: HMO 5 g/L as single carbon source, toddler fecal community, after 24 hr and 48 hrs
Method: All bacterial strains retrieved from the Nestlé Culture Collection (NCC) were reactivated from a freeze-dried stock using two successive culturing steps (16 h, 37° C., anaerobiosis) in MRS (De Man, Rogosa and Sharpe) media supplemented with 0.05% cysteine (MRSc). Reactivated cultures were then centrifuged, washed, and resuspended in 1 volume of PBS.
For in vitro tube fermentation experiments, pulverized or homogenized stool samples were mixed 10-fold by adding PBS/glycerol (1/10) (w/v) before centrifugation at 600×g for 2 minutes. The slurry and pellet were then stored at −80° C. Frozen slurry of a fecal sample was thawed from storage and then use for the in vitro tube fermentation assays. The fecal slurry was inoculated with media based on that disclosed in Gibson et al. (Applied and Environmental Microbiology; 1988; 54(11); 2750-2755) with some modifications, specifically the exclusion of any carbon source. […]
The in vitro tube fermentation assays (n=3 per testing group) were set up at 37° C. with gentle stirring in an anaerobic environment (gas flow of pure N2 and a mix of N2, H2, and CO2 to ensure anaerobic conditions). Aliquots (0.5 mL) from fermentation tubes were taken and DNA was extracted, purified and analyzed at the time points indicated (0 hr, 24 hr and 48 hr). […]

Substance | growth of NCC5004 (qPCR absolute abundance) compared to baseline (0 hrs)
3-fucosyllactose [3 FL] | significant growth
2′ fucosyllactose [2′FL] | significant growth
